Measurements: publication PMC12373846, “Hemoglobin as a pseudoperoxidase and drug target for oxidative stress-related diseases” (Signal Transduction and Targeted Therapy, 2025)
Where “and” joins values, the source holds several entries; their conditions need not be identical. Equal values may be shown once. Read-outs that look alike come from different tables or passages of the source.

What was measured:
Test in all cases: SafetyScreen87 panel
[1] = tested on: BZD (central) (agonist radioligand); details: 1.0E-06 M, read-out: % Inhibition of Control Specific Binding (1st, 2nd, Mean)
Procedure: (§1) The possibility of KDS12025 on kinase off-target, the KINOMEscan panel of scanEDGE assay was conducted in DiscoverX (CA, USA) using a site-directed competition binding with the test compounds. The assay results are given in Supplementary Table 4 and experimental information is available on the DiscoverX web page (www.discoverx.com). Moreover, the Delta SafetyScreen87 panel assay was conducted in Eurofins Discovery (Cerep, France). The assay results are given in Supplementary Table 5 and experimental information is available on the DiscoverX web page (https://www.eurofinsdiscoveryservices.com).

[2] = tested on: kainate (agonist radioligand); details: 1.0E-06 M, read-out: % Inhibition of Control Specific Binding (1st, 2nd, Mean)
Procedure: as §1

[3] = tested on: Ca2+ channel (L, dihydropyridine site) (antagonist radioligand); details: 1.0E-06 M, read-out: % Inhibition of Control Specific Binding (1st, 2nd, Mean)
Procedure: as §1

[4] = target: T1, MAO-A (antagonist radioligand) (Rattus norvegicus, UniProt P21396); details: 1.0E-06 M; mean; read-out: % Inhibition of Control Specific Binding (1st, 2nd, Mean)
T1 construct: purchased DiscoverX KINOMEscan scanEDGE; Eurofins Cerep SafetyScreen87
Procedure: as §1

[5] = target: T2, alpha 1A (h) (antagonist radioligand) (Homo sapiens, UniProt P35348); details: 1.0E-06 M, read-out: % Inhibition of Control Specific Binding (1st, 2nd, Mean)
T2 construct: purchased DiscoverX KINOMEscan scanEDGE; Eurofins Cerep SafetyScreen87
T2 sequence (P35348 whole entry): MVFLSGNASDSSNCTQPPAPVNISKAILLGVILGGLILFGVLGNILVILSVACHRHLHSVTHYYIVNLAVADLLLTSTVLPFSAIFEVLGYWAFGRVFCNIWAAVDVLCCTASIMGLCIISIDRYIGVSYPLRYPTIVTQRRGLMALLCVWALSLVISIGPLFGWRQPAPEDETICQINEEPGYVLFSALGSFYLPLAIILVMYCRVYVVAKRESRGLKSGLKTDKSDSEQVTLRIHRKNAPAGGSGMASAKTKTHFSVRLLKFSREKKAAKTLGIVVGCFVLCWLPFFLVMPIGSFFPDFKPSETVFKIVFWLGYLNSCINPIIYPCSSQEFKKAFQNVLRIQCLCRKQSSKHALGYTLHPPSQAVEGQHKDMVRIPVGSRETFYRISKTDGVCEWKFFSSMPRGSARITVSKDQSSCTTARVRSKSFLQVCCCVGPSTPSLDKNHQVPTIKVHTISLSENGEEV
Procedure: as §1

[6] = target: T3, alpha 1D (h) (antagonist radioligand) (Homo sapiens, UniProt P25100); details: 1.0E-06 M, read-out: % Inhibition of Control Specific Binding (1st, 2nd, Mean)
T3 construct: purchased DiscoverX KINOMEscan scanEDGE; Eurofins Cerep SafetyScreen87
Procedure: as §1

[7] = target: T4, M4 (h) (antagonist radioligand) (Homo sapiens, UniProt P08173); details: 1.0E-06 M; mean; read-out: % Inhibition of Control Specific Binding (1st, 2nd, Mean)
T4 construct: purchased DiscoverX KINOMEscan scanEDGE; Eurofins Cerep SafetyScreen87
Procedure: as §1

[8] = tested on: Na+ channel (site 2) (antagonist radioligand); details: 1.0E-06 M, read-out: % Inhibition of Control Specific Binding (1st, 2nd, Mean)
Procedure: as §1

[9] = target: T5, A1 (h) (antagonist radioligand) (Homo sapiens, UniProt P30542); details: 1.0E-06 M, read-out: % Inhibition of Control Specific Binding (1st, 2nd, Mean)
T5 construct: purchased DiscoverX KINOMEscan scanEDGE; Eurofins Cerep SafetyScreen87
T5 sequence (P30542 whole entry): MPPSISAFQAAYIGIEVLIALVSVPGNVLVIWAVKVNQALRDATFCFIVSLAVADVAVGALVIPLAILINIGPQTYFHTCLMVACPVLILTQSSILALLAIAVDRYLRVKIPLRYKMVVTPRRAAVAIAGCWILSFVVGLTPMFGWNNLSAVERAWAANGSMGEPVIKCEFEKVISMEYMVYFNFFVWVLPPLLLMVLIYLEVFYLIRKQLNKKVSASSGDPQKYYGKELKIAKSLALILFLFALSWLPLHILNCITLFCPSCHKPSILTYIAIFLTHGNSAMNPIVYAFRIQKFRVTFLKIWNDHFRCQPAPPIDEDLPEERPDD
Procedure: as §1

[10] = target: T6, 5-HT1B (h) (antagonist radioligand) (Homo sapiens, UniProt P28222); details: 1.0E-06 M; mean; read-out: % Inhibition of Control Specific Binding (1st, 2nd, Mean)
T6 construct: purchased DiscoverX KINOMEscan scanEDGE; Eurofins Cerep SafetyScreen87
Procedure: as §1

[11] = target: T7, NK1 (h) (agonist radioligand) (Homo sapiens, UniProt P25103); details: 1.0E-06 M; mean; read-out: % Inhibition of Control Specific Binding (1st, 2nd, Mean)
T7 construct: purchased DiscoverX KINOMEscan scanEDGE; Eurofins Cerep SafetyScreen87
Procedure: as §1

[12] = target: T8, AT1 (h) (antagonist radioligand) (Homo sapiens, UniProt P30556); details: 1.0E-06 M, read-out: % Inhibition of Control Specific Binding (1st, 2nd, Mean)
T8 construct: purchased DiscoverX KINOMEscan scanEDGE; Eurofins Cerep SafetyScreen87
T8 sequence (P30556 whole entry): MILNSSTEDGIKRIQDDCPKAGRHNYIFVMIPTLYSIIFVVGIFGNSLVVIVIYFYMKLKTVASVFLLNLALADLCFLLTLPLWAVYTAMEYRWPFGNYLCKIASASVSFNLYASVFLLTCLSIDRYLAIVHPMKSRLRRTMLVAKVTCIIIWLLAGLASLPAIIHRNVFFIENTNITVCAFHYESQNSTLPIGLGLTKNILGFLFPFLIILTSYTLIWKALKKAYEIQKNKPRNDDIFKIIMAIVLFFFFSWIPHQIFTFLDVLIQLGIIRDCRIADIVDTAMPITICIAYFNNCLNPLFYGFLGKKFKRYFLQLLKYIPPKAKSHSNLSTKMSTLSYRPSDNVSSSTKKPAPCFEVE
Procedure: as §1

[13] = tested on: Cl- channel (GABA-gated) (TBOB site) (antagonist radioligand); details: 1.0E-06 M, read-out: % Inhibition of Control Specific Binding (1st, 2nd, Mean)
Procedure: as §1

[14] = tested on: PCP (antagonist radioligand); details: 1.0E-06 M; mean; read-out: % Inhibition of Control Specific Binding (1st, 2nd, Mean)
Procedure: as §1

[15] = target: T9, alpha 2A (h) (antagonist radioligand) (Homo sapiens, UniProt P08913); details: 1.0E-06 M, read-out: % Inhibition of Control Specific Binding (1st, 2nd, Mean)
T9 construct: purchased DiscoverX KINOMEscan scanEDGE; Eurofins Cerep SafetyScreen87
T9 sequence (P08913 whole entry): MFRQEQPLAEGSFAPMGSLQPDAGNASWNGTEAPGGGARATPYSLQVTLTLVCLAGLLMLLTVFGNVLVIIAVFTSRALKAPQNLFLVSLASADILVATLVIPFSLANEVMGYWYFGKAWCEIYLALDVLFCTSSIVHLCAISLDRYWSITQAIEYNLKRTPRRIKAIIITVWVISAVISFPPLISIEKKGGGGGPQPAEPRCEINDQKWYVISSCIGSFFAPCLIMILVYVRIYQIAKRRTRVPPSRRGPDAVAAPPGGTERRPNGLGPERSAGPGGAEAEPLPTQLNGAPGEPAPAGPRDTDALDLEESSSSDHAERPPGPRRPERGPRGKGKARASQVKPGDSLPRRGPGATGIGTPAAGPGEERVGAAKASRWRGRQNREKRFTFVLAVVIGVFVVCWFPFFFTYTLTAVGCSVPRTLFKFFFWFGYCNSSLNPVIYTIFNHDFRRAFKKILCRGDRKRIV
Procedure: as §1

[16] = target: T10, mu (MOP) (h) (agonist radioligand) (Homo sapiens, UniProt P35372); details: 1.0E-06 M; mean; read-out: % Inhibition of Control Specific Binding (1st, 2nd, Mean)
T10 construct: purchased DiscoverX KINOMEscan scanEDGE; Eurofins Cerep SafetyScreen87
Procedure: as §1

[17] = target: T11, alpha 1B (h) (antagonist radioligand) (Homo sapiens, UniProt P35368); details: 1.0E-06 M, read-out: % Inhibition of Control Specific Binding (1st, 2nd, Mean)
T11 construct: purchased DiscoverX KINOMEscan scanEDGE; Eurofins Cerep SafetyScreen87
T11 sequence (P35368 whole entry): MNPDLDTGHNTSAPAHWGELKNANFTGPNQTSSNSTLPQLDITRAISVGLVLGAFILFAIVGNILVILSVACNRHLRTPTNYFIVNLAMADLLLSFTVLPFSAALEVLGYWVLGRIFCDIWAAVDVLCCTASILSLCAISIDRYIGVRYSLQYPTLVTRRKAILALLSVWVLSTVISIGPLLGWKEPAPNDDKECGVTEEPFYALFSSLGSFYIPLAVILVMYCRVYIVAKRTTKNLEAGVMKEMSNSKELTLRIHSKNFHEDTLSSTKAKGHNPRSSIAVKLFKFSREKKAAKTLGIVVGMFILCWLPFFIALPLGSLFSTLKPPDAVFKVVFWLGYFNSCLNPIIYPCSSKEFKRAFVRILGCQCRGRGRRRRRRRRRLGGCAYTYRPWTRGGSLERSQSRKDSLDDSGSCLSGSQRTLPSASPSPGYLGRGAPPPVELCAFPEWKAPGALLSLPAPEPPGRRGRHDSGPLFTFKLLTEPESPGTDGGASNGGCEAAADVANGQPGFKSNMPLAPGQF
Procedure: as §1

[18] = target: T12, PPARgamma (h) (agonist radioligand) (Homo sapiens, UniProt P37231); details: read-out: % Inhibition of Control Specific Binding (1st, 2nd, Mean); 1.0E-06 M
T12 construct: purchased DiscoverX KINOMEscan scanEDGE; Eurofins Cerep SafetyScreen87
Procedure: as §1

[19] = target: T13, CCK2 (CCKB) (h) (agonist radioligand) (Homo sapiens, UniProt P32239)
T13 construct: purchased DiscoverX KINOMEscan scanEDGE; Eurofins Cerep SafetyScreen87
Procedure: as §1

[20] = target: T14, RARalpha (h) (agonist radioligand) (Homo sapiens, UniProt P10276); details: 1.0E-06 M; read-out: % Inhibition of Control Specific Binding (1st, 2nd, Mean)
T14 construct: purchased DiscoverX KINOMEscan scanEDGE; Eurofins Cerep SafetyScreen87
T14 sequence (P10276 whole entry): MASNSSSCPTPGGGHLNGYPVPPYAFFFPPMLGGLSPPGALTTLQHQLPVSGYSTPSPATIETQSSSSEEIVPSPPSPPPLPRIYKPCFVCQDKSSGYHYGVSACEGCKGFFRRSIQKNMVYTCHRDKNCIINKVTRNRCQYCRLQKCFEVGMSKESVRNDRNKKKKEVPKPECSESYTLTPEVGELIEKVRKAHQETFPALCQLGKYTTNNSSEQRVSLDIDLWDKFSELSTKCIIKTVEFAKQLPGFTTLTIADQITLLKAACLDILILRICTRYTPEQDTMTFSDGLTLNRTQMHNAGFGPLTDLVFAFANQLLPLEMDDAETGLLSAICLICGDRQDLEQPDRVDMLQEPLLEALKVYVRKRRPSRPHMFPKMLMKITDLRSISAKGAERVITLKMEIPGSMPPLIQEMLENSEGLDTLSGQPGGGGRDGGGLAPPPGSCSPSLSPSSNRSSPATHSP
Procedure: as §1

[21] = target: T15, B2 (h) (agonist radioligand) (Homo sapiens, UniProt P30411)
T15 construct: purchased DiscoverX KINOMEscan scanEDGE; Eurofins Cerep SafetyScreen87
T15 sequence (P30411 whole entry): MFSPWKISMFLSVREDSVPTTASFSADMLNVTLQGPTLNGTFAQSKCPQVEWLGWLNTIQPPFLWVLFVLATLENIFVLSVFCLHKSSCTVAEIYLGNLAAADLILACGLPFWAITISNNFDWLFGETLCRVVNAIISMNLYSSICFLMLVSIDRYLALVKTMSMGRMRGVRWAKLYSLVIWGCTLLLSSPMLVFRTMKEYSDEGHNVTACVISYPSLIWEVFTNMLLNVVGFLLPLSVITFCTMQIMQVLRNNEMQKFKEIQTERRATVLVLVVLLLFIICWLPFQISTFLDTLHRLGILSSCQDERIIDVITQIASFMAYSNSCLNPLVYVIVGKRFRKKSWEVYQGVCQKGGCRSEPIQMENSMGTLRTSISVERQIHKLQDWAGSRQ
Procedure: as §1

[22] = target: T16, 5-HT transporter (h) (antagonist radioligand) (Homo sapiens, UniProt P31645); details: 1.0E-06 M, read-out: % Inhibition of Control Specific Binding (1st, 2nd, Mean)
T16 construct: Eurofins Discovery (Cerep, France) SafetyScreen87 panel
T16 sequence (P31645 whole entry): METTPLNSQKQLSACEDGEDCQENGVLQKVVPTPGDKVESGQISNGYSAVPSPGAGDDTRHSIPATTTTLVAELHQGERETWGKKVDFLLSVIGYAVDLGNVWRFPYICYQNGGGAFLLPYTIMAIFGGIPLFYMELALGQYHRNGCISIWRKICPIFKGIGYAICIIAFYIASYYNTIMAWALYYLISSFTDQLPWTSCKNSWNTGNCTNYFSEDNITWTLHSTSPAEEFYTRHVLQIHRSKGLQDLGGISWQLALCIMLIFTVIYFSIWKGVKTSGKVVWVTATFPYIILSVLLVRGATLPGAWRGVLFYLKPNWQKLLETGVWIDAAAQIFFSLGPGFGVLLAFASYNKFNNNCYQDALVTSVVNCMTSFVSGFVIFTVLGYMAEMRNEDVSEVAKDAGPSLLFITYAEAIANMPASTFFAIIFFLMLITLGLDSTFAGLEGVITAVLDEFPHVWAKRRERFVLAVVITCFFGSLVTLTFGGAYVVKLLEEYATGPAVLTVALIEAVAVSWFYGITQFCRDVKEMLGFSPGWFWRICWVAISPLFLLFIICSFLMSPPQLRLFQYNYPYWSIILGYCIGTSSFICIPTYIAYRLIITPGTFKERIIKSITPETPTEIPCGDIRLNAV
Procedure: as §1

[23] = target: T17, Estrogen ER alpha (h) (agonist radioligand) (Homo sapiens, UniProt P03372); details: 1.0E-06 M; mean; read-out: % Inhibition of Control Specific Binding (1st, 2nd, Mean)
T17 construct: purchased DiscoverX KINOMEscan scanEDGE; Eurofins Cerep SafetyScreen87
Procedure: as §1

[24] = target: T18, PR (h) (agonist radioligand) (Homo sapiens, UniProt P06401); details: read-out: % Inhibition of Control Specific Binding (1st, 2nd, Mean); 1.0E-06 M
T18 construct: purchased DiscoverX KINOMEscan scanEDGE; Eurofins Cerep SafetyScreen87
Procedure: as §1

[25] = tested on: AMPA (agonist radioligand); details: 1.0E-06 M, read-out: % Inhibition of Control Specific Binding (1st, 2nd, Mean)
Procedure: as §1

[26] = target: T19, MC1 (agonist radioligand) (Mus musculus, UniProt Q01727); details: 1.0E-06 M; mean; read-out: % Inhibition of Control Specific Binding (1st, 2nd, Mean)
T19 construct: purchased DiscoverX KINOMEscan scanEDGE; Eurofins Cerep SafetyScreen87
Procedure: as §1

[27] = target: T20, M3 (h) (antagonist radioligand) (Homo sapiens, UniProt P20309); details: 1.0E-06 M; mean; read-out: % Inhibition of Control Specific Binding (1st, 2nd, Mean)
T20 construct: purchased DiscoverX KINOMEscan scanEDGE; Eurofins Cerep SafetyScreen87
Procedure: as §1

[28] = target: T21, GABAB(1b) (h) (antagonist radioligand) (Homo sapiens, UniProt Q9UBS5); details: 1.0E-06 M, read-out: % Inhibition of Control Specific Binding (1st, 2nd, Mean)
T21 construct: purchased DiscoverX KINOMEscan scanEDGE; Eurofins Cerep SafetyScreen87
T21 sequence (Q9UBS5 1-844 isoform Q9UBS5-2): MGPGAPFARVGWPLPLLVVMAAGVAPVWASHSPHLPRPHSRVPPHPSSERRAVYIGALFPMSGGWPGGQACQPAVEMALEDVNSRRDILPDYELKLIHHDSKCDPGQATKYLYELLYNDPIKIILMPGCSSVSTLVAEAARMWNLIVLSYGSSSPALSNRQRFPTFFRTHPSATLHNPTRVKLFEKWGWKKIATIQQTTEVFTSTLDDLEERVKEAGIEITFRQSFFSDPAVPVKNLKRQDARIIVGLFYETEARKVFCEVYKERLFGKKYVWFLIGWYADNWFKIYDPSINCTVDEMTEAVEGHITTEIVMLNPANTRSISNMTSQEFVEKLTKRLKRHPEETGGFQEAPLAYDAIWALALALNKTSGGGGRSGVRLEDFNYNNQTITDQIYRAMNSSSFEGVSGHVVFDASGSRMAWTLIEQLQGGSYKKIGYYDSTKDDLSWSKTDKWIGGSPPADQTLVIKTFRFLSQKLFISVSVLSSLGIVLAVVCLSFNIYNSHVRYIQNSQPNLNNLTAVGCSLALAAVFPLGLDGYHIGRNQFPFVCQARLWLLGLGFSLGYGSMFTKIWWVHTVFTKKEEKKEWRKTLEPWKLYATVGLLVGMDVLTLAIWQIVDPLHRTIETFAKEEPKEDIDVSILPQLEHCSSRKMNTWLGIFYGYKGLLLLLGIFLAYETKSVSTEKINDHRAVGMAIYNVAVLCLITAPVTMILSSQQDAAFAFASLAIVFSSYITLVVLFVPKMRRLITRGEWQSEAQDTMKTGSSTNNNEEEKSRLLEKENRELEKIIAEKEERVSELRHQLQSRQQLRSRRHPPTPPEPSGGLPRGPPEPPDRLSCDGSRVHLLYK
Procedure: as §1

[29] = target: T22, CB2 (h) (agonist radioligand) (Homo sapiens, UniProt P34972); details: 1.0E-06 M, read-out: % Inhibition of Control Specific Binding (1st, 2nd, Mean)
T22 construct: purchased DiscoverX KINOMEscan scanEDGE; Eurofins Cerep SafetyScreen87
T22 sequence (P34972 whole entry): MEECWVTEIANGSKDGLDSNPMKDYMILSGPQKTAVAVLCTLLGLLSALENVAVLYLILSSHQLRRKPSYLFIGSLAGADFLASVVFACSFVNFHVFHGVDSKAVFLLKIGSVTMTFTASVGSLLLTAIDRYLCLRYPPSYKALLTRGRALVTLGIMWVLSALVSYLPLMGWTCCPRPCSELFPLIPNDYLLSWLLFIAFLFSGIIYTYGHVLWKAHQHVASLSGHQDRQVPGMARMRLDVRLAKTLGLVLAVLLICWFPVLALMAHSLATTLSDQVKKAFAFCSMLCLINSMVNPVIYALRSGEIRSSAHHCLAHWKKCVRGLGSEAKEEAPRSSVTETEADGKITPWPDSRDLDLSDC
Procedure: as §1

[30] = target: T23, 5-HT1A (h) (agonist radioligand) (Homo sapiens, UniProt P08908); details: 1.0E-06 M; mean; read-out: % Inhibition of Control Specific Binding (1st, 2nd, Mean)
T23 construct: purchased DiscoverX KINOMEscan scanEDGE; Eurofins Cerep SafetyScreen87
Procedure: as §1

[31] = target: T24, V1a (h) (agonist radioligand) (Homo sapiens, UniProt P37288); details: 1.0E-06 M; mean; read-out: % Inhibition of Control Specific Binding (1st, 2nd, Mean)
T24 construct: purchased DiscoverX KINOMEscan scanEDGE; Eurofins Cerep SafetyScreen87
Procedure: as §1

[32] = 1.0E-06 M; read-out: % Inhibition of Control Specific Binding (1st, 2nd, Mean)
[33] = read-out: % Inhibition of Control Specific Binding (1st, 2nd, Mean); 1.0E-06 M

In the case of `CNc1ccc(NCCc2ccccc2OC)cc1.Cl` [KDS12025, N^1-(2-methoxyphenethyl)-N^4-methylbenzene-1,4-diamine hydrochloride salt], the activity ([1]; mean) is reported as 99.5%, the activity [1] is reported as 102% and 96.6% and the activity ([2]; mean) is reported as 97.4%. The activity [2] was 76.8% and 118%, the activity ([3]; mean) was 129% and the activity [3] was 138% and 121%. For the same molecule, the activity [4] was 100%, the activity ([5]; mean) was 87.1% and the activity [5] was 87.6% and 86.5%. The activity ([6]; mean) was 75.8%, the activity [6] was 75.3% and 76.3% and the activity [7] was 102%. The activity ([8]; mean) was 74.5%, the activity [8] was 83.6% and 65.5% and the activity ([9]; mean) was 114%. For the same molecule, the activity [9] was 115% and 114%, the activity [10] was 90.8% and the activity [11] was 91.2%. For the same molecule, the activity ([12]; mean) was 87.4%, the activity [12] was 82.3% and 92.5% and the activity ([13]; mean) was 96.4%. For the same molecule, the activity [13] was 104% and 89%, the activity [14] was 92% and the activity ([15]; mean) was 86.1%. The activity [15] was 86.9% and 85.4%, the activity [16] was 84.5% and the activity ([17]; mean) was 65.4%. The activity [17] was 61.4% and 69.4%, the activity [18] was 94.7% and the activity [19, 32] was 97%. The activity [19, 33] was 107%, the activity [20] was 105% and the activity [21, 32] was 99.4%. The activity [21, 33] was 104%, the activity ([22]; mean) was 54.6% and the activity [22] was 62.9% and 46.4%. It also gave an activity [23] of 95.3%, an activity [24] of 104% and an activity ([25]; mean) of 100%. For the same molecule, the activity [25] was 98% and 103%, the activity [26] was 109% and the activity [27] was 85.5%. For the same molecule, the activity ([28]; mean) was 104%, the activity [28] was 106% and 101% and the activity ([29]; mean) was 84.6%. The activity [29] was 78.4% and 90.8%, the activity [30] was 62.4% and the activity [31] was 110%.
